Measurements reported in US20030138946A1.

Legend:
[1] = test system: 2C+ T-cells; format: cell-based, mouse
[2] = test system: RMA.S cells (target cells) expressing L^d; format: cell-based, mouse
[3] = test system: CD8^+ 2C lymph node cells; test: IL-2 production by CD8+ 2C lymph node cells (CTLL indicator line 3HTdR); format: cell-based, mouse; details: peptide 10 μM
Protocol: Using a standard tissue culture system (Cai, Z. and Sprent, J. (1994) J. Exp. Med. 179: 2005-2015), doses of 5×10^4 purified CD8^+ 2C lymph node (LN) cells were cultured at 37° C. with doses of 3×10^5 transfected fly cells ±peptides (10 μM final concentration). Peptides were synthesized by R. W. Johnson Pharmaceutical Research Institute (Sykulev, et al. (1994) Immunity 1: 15-22. Proliferative responses were measured by adding ^3HTdR (1 μCi/well) 8 hours prior to harvest. IL-2 production was measured by removing supernatants from the cultures at 48 hours and adding 50 μl supernatant to an IL-2 responsive indicator cell line (CTLL); proliferation of the indicator line was measured by addition of ^3HTdR. The data shown in Table 2 are the means of triplicate cultures. The transfected Drosophila S2 cells die rapidly at 37° C. and fail to incorporate ^3HTdR at this temperature.

[4] = test system: CD8^+ 2C cells; test: Dose-response of day 3 proliferation of CD8+ 2C cells to peptides on transfected Drosophila APC; format: cell-based, mouse; details: for proliferative response: 1 nM peptide
Protocol: Responses to p2Ca (above) and QL9 (below) were measured by culturing 5×10^4 purified CD8^+ 2C cells with 2×10^5 Drosophila cells in the presence or absence of the indicated concentrations of peptides for 3 days. [^3H] TdR was added during the last 8 hours of culture; rIL-2 was added at a final concentration of 20 units/ml. The data are the mean of triplicate cultures. When supplemented with exogenous IL-2, however, both peptides stimulated significant proliferative responses at high doses (10 μM). The proliferative responses elicited by QL9 were far stronger than for p2Ca (note the large difference between the scales of x-axes of the upper and the lower panel).
Dose-response relationships for proliferation on day 3 elicited by Drosophila cells transfected with L^d.B7.1CAM and presenting p2Ca peptide were compared to those elicited by Drosophila cells transfected with L^d.B7, L^d.ICAM or L^d.B7.1CAM presenting QL9 peptide. Drosophila APC (2×10^5 cells) were cultured with 5×10^4 CD8^+ 2C cells for three days in the presence or absence of peptides. [^3H] TdR was added during the last 8 hours of culture; no IL-2 was added to the cultures.

[5] = test system: soluble 2C TCR molecules; details: peptide complexed to L^d; association constant; cited from earlier work
[6] = test system: 2C+ T-cells; test: Rosetting of 2C+ T-cells with L^d-bearing supports plus peptide; format: cell-based, mouse; details: peptide 0.02 mM
Protocol: Rosetting experiments verified that the attached MHC molecules interacted functionally with T-cells. Drosophila S2 cells expressing L^d, L^d-coated SRBC were incubated with QL9 peptide (0.02 mM) or an irrelevant peptide (MCMV, 0.02 mM) for 30 minutes on ice; 2C+ T-cells were then added, the proportion being 10 2C+ T-cells for 1 Drosophila S2 cell, or 10 SRBC for 1 2C+ T-cell; the mixture was pelleted and kept on ice for at least 30 min. Cells were then carefully resuspended and rosettes were counted, a rosette being a Drosophila S2 cell bound to at least 3 2C+ T-cells, or a 2C+ T-cell bound to at least 3 SRBC. […] Typically, 30-40% of the lymphocytes were included in rosettes when QL9 peptide was added.
Rosetting experiments verified that the attached MHC molecules on latex beads interacted functionally with T-cells. Drosophila S2 cells expressing recombinant L^d and L^d-coated latex beads were incubated with QL9 peptide (0.02 mM) or an irrelevant peptide (MCMV, 0.02 mM) for 30 minutes on ice; 2C+ T-cells were then added, the proportion being 10 2C+ T-cells for 1 Drosophila S2 cell, or […]; the mixture was pelleted and kept on ice for at least 30 min. Cells were then carefully resuspended and rosettes were counted, a rosette being a Drosophila S2 cell bound to at least 3 2C+ T-cells, or a 2C+ T-cell bound to at least 3 latex beads. […]

[7] = test system: CD8^+ 2C cells; test: CD69 and CD25 expression on CD8+ 2C cells stimulated with transfected Drosophila cells plus peptide; format: cell-based, mouse; details: Drosophila cells expressing L^d alone; peptide 10 μM, 12 hours
Protocol: TCR stimulation elicited a complex pattern of intracellular events which lead to early up-regulation of CD69 and CD25 (IL-2 receptor or IL-2R) on the cell surface. These changes are apparent within a few hours of stimulation and are followed by cytokine synthesis and cell proliferation. Drosophila cells were transfected with genes for L^d, L^d and B7.1 (L^d.B7), L^d and ICAM-1 (L^d.ICAM) or L^d, B7.1 and ICAM-1 (L^d.B7.1CAM). […] Purified CD8^+ 2C cells were incubated with various Drosophila cells plus a peptide (either p2Ca or QL9, 10 μM) in bulk (2 ml) culture for 12 hours and then stained for CD69 or CD25. Either p2Ca or QL9 presented by Drosophila cells transfected with L^d.B7, L^d.ICAM or L^d.B7.1CAM were effective in stimulating the up-regulation of CD69 and CD25.

[8] = test system: 2C+ T-cells; test: Enrichment of 2C+ T-cells from a 1/99 mixture with C57BL/6 CD8+ cells (1B2 staining, flow cytofluorometry); format: cell-based, mouse
Protocol: 2C+ T-cells were mixed with total CD8^+ cells from C57BL/6 mice at a 1/99 ratio and cells were cultured with immobilized L^d and anti-CD28 antibody in the presence of peptide QL9. IL-2 was added at day 2 of culture, and subsequently every other day. Cell activation and proliferation was noted, as evidenced by the formation of clumps, presence of enlarged cells that progressively spread in the well. At day 12 of culture, cells were harvested and percentage of cells expressing the 2C T-cell receptor was assessed by staining with the anticlonotypic antibody 1B2 and analysis by flow cytofluorometry: 43% of the cells cultured initially in the presence of peptide QL9 were 2C+, (FIG. 22) whereas 49% of the cells expressed 2C after stimulation with peptide p2Ca (FIG. 23), and 22% with peptide SL9 (FIG. 24). […] Enrichment was observed even with SL9, a peptide that makes a low affinity complex with the 2C T-cell receptor. This method thus can specifically activate and enrich a small subpopulation of antigen specific T-cells out of a heterogenous mixture of T-cells.

Gln-Leu-Ser-Pro-Phe-Pro-Phe-Asp-Leu [QL9]
thymidine incorporation [1]: above 100,000 cpm per well
lysis of target cells in the presence of peptide [2]: observed
IL-2 Production (Day 2) ^3HTdR incorporation, fly cells expressing L^d ([3]; APC L^d): 0.1 cpm × 10^3
IL-2 Production (Day 2) ^3HTdR incorporation, fly cells expressing L^d + B7.1 ([3]; APC L^d + B7.1): 0.4 cpm × 10^3
IL-2 Production (Day 2) ^3HTdR incorporation, fly cells expressing L^d + B7.1 + ICAM-1 ([3]; APC L^d + B7.1 + ICAM-1): 158.6 cpm × 10^3
IL-2 Production (Day 2) ^3HTdR incorporation, fly cells expressing L^d + ICAM-1 ([3]; APC L^d + ICAM-1): 0.2 cpm × 10^3
IL-2 Production (Day 2) ^3HTdR incorporation, L^d + B7.1 combined with L^d + ICAM-1 ([3]; mixture of two APC lines): 0.5 cpm × 10^3
proliferative response ([4]; L^d.B7 and L^d.ICAM APC): < 100 cpm
proliferative response ([4]; L^d.B7.1CAM APC): > 10,000 cpm
effect of high peptide dose on day 3 proliferative response ([4]; 10 μM peptide, L^d.B7.1CAM APC): inhibited
proliferation of 2C CD8+ cells ([4]; Drosophila cells with L^d alone, no exogenous lymphokines): failed
lowest peptide dose with clearly apparent day 3 proliferative response ([4]; L^d.B7.1CAM APC, no IL-2): ≤ 10 pM
peptide concentration giving maximal day 3 proliferative response ([4]; L^d.B7.1CAM APC, no IL-2): 100 nM
affinity for 2C TCR molecules [5]: 2e+07 M⁻¹
lymphocytes included in rosettes ([6]; Drosophila S2 cells expressing L^d or L^d-coated SRBC): 30-40%
lymphocytes included in rosettes ([6]; Drosophila S2 cells expressing L^d or L^d-coated latex beads): 30-40%
induction of CD69 and CD25 expression [7]: low, but significant
enrichment in specific T-cells after 12 days ([8]; start 1/99): 43 times
cells expressing the 2C T-cell receptor (2C+) at day 12 ([8]; start 1/99 2C+/total CD8+, immobilized L^d and anti-CD28, IL-2 from day 2): 43%
